According to ChEMBL document CHEMBL1201862, “PubChem BioAssay data set” (2004):
Active and inactive are the calls of the source.

Experiments:
[1] = molecular target: Latent membrane protein 1 (Human herpesvirus 4 (strain B95-8), UniProt P03230); assay: TES1-eGFP NF-kB reporter inhibition versus Tet-On dsRED, dose response, selectivity assay for LMP1 NF-kB inhibitor project, imaging, HEK293T, dual-color eGFP/dsRED, cherry-picks (AID 588398); assay type: functional, cell-based
[2] = molecular target: T1, Sentrin-specific protease 8 (Homo sapiens, UniProt Q96LD8); assay: SENP8 protease inhibitors, SAR follow-up, biochemical, luminescence, set 2 (AID 588601); assay type: functional
T1 sequence (Q96LD8 whole entry): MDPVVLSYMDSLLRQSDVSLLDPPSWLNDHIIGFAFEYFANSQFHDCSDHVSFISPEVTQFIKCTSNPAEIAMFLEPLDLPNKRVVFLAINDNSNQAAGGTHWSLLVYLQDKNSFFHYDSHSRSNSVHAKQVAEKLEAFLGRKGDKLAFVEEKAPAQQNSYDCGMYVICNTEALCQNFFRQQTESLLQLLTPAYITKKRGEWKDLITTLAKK

[3] = molecular target: T2, Sentrin-specific protease 6 (Homo sapiens, UniProt Q9GZR1); assay: SENP6 protease inhibitors, SAR follow-up, biochemical, luminescence, set 2 (AID 588598); assay type: functional
T2 sequence (Q9GZR1 whole entry): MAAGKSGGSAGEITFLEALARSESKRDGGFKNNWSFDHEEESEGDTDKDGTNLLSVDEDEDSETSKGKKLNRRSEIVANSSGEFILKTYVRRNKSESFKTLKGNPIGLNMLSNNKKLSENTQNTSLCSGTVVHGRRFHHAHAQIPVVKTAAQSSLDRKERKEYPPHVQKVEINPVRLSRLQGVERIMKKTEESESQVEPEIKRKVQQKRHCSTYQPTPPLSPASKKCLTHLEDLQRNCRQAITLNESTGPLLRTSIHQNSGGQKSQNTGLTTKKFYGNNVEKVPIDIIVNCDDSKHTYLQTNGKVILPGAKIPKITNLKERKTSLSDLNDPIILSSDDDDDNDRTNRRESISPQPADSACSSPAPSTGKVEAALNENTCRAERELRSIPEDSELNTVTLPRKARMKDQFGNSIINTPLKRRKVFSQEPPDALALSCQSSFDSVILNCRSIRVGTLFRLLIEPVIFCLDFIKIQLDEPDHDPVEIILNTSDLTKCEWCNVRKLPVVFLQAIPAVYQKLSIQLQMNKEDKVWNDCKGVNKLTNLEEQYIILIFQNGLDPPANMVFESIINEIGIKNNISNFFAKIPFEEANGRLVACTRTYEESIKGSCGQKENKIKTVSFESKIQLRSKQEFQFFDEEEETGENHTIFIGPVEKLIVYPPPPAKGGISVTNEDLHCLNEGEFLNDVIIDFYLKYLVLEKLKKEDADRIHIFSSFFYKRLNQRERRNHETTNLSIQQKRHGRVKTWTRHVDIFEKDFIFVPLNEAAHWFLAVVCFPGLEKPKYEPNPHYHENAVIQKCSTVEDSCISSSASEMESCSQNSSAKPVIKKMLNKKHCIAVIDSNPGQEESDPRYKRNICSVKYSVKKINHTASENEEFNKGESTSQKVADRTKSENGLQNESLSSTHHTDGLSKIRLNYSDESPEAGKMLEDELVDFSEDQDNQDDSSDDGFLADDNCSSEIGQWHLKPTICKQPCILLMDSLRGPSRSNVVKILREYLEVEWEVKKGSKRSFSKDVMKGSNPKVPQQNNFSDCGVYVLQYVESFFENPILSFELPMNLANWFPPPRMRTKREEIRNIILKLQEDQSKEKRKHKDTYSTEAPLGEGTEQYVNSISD

[4] = molecular target: T3, Caspase-3 (Homo sapiens, UniProt P42574); assay: caspase-3 inhibitors as off-family protease, SAR follow-up, selectivity assay for SENP protease inhibitor project, biochemical, luminescence, set 2 (AID 588599); assay type: functional
T3 sequence (P42574 whole entry): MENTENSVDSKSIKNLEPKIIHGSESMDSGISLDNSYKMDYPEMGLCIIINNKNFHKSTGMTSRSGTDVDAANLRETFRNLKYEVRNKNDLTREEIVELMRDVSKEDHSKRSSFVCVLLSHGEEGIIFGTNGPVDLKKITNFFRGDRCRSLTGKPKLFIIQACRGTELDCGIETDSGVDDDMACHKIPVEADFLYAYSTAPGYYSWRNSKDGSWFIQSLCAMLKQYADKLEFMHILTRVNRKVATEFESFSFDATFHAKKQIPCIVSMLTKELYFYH

[5] = molecular target: T1, Sentrin-specific protease 8; assay: SENP8 protease inhibitors, SAR follow-up, biochemical, luminescence (AID 504501); assay type: functional
[6] = molecular target: T4, Sentrin-specific protease 7 (Homo sapiens, UniProt Q9BQF6); assay: SENP7 protease inhibitors, SAR follow-up, biochemical, luminescence (AID 504497); assay type: functional
T4 sequence (Q9BQF6 whole entry): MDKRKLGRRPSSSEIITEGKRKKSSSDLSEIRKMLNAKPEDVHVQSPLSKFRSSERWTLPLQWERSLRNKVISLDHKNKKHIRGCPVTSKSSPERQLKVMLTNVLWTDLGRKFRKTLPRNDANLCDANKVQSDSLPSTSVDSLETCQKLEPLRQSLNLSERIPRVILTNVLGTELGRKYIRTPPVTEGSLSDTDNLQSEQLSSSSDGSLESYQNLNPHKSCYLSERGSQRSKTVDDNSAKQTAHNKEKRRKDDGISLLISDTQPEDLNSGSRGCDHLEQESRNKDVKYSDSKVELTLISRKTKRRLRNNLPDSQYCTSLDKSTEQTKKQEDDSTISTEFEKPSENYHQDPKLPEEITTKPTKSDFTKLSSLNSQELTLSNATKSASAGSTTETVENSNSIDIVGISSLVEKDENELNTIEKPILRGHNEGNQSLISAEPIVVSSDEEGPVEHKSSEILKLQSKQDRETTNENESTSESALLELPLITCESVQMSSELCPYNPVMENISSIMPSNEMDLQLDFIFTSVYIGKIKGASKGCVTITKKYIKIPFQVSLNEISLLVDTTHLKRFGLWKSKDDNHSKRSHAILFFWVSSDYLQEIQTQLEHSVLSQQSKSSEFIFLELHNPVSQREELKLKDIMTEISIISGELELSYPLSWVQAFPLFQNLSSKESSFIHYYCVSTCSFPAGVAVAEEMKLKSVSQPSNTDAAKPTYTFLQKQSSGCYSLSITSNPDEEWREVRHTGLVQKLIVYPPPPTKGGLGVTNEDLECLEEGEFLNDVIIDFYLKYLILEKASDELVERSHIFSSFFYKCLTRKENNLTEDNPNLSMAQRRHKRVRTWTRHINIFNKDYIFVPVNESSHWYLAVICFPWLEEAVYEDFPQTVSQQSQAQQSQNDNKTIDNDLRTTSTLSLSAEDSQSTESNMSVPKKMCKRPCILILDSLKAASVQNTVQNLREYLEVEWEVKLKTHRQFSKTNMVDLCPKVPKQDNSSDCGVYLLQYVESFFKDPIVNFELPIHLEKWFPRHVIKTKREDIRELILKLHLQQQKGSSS

[7] = molecular target: T3, Caspase-3; assay: SAR Analysis of small molecule inhibitors of Sentrin-specific proteases (SENPs) using a Caspase-3 Selectivity assay. [Related pubchem assays (depositor defined):AID2540, AID2599, AID434973, AID489001]; assay type: functional
[8] = molecular target: T2, Sentrin-specific protease 6; assay: SAR Analysis of small molecule inhibitors of Sentrin-specific protease 6 (SENP6) using a Luminescent assay. [Related pubchem assays (depositor defined):AID2582, AID2599]; assay type: functional
[9] = system: HEK293; assay: HEK cell cytotoxicity by LDH release, dose response, cytotoxicity control for IDE activator project, fluorescence, HEK cells (AID 588440); assay type: functional, cell-based; conditions: Homo sapiens;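 further: cytotoxicity by LDH release measuring loss of membrane integrity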
[10] = molecular target: T5, Insulin-degrading enzyme (Homo sapiens, UniProt P14735); assay: activators of endogenous IDE in HEK cells, dose response, cell-based, fluorescence polarization (AID 588439); assay type: functional
T5 sequence (P14735 whole entry): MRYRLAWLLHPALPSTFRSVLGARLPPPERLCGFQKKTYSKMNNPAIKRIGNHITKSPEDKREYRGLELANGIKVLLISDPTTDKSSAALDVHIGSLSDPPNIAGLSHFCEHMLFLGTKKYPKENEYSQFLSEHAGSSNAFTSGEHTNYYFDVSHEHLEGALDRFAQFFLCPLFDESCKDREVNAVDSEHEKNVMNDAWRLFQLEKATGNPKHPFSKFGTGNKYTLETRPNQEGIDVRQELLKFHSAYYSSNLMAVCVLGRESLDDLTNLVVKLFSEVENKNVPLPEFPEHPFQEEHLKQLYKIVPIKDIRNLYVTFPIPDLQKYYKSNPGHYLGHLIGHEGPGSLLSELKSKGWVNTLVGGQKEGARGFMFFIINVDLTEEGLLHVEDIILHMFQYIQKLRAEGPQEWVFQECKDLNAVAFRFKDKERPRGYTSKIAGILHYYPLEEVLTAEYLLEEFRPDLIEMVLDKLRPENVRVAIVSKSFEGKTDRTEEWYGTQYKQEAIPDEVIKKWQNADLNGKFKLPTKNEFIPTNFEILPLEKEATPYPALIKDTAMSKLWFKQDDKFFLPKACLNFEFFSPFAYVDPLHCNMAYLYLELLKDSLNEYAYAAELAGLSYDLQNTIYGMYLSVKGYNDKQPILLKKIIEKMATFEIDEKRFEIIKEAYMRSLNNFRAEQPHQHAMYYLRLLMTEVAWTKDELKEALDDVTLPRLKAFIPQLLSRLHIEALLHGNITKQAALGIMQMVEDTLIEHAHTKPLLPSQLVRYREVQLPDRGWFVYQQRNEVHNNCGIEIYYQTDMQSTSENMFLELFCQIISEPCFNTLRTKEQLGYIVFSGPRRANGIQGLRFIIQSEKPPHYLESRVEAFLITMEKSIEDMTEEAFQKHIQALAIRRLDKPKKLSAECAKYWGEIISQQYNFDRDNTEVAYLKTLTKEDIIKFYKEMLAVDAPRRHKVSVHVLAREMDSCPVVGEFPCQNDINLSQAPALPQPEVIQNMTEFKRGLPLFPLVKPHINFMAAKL

[11] = system: HEK293; assay: optical interference in Abeta FP readout, dose response, artefact control for IDE activator project, biochemical, fluorescence polarization (AID 588442); assay type: functional, cell-based; conditions: Homo sapiens
[12] = molecular target: T5, Insulin-degrading enzyme; assay: activators of recombinant IDE enzyme, dose response, counter-screen for IDE activator project, biochemical, fluorescence polarization (AID 588681)
[13] = system: HEK293; assay: inhibitors of LMP1-driven NF-kB reporter, dose response, cell-based, HEK293, luciferase, cherry-pick (AID 588343); assay type: functional; conditions: Homo sapiens
[14] = control 3'UTR Renilla luciferase suppression, dose response, counter-screen for Shn3 inhibitor project, cell-based, Clone20-Shn3RL, cherry-picked (AID 624133); assay type: functional
[15] = HepG2 cell cytotoxicity, dose response, cytotoxicity control for Shn3 inhibitor project, CellTiter-Glo, cherry-picked (AID 624134); assay type: functional, cell-based
[16] = LGR2 antagonists, dose response, cell-based, HEK293, CRE-luciferase reporter, cherry pick, set 2 (AID 743343); assay type: functional;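 further: transfected cells were stimulated with diluted bursicon conditioned medium after compound addition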
[17] = HEK293T cell cytotoxicity, dose response, cytotoxicity control for HIV Vif inhibitor project, cherry-picks (AID 652208); assay type: functional, cell-based
[18] = Shn3 3'UTR reporter inhibitors, dose response, cell-based, Clone20 osteoblasts, firefly luciferase, cherry-picked (AID 624132); assay type: functional;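 further: firefly luciferase luminescence from reporter carrying the Shn3 3'UTR in osteoblasts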
[19] = A549 cell cytotoxicity, dose response, cytotoxicity control, plate reader, cherry-pick, antagonist series (AID 743412); assay type: functional, cell-based
[20] = HEK293 cell cytotoxicity, dose response, cytotoxicity control, plate reader, cherry-picked samples (AID 743446); assay type: functional, cell-based
[21] = HepG2 cell cytotoxicity, dose response, cytotoxicity control, plate reader, cherry-pick, antagonist series (AID 743416); assay type: functional, cell-based
[22] = molecular target: Protein disulfide-isomerase (Homo sapiens, UniProt P07237); assay: PDI inhibitors, insulin aggregation turbidity, dose response, biochemical, absorbance, cherry-picked samples (AID 602350); assay type: functional
Protein disulfide-isomerase, sequence (P07237 whole entry): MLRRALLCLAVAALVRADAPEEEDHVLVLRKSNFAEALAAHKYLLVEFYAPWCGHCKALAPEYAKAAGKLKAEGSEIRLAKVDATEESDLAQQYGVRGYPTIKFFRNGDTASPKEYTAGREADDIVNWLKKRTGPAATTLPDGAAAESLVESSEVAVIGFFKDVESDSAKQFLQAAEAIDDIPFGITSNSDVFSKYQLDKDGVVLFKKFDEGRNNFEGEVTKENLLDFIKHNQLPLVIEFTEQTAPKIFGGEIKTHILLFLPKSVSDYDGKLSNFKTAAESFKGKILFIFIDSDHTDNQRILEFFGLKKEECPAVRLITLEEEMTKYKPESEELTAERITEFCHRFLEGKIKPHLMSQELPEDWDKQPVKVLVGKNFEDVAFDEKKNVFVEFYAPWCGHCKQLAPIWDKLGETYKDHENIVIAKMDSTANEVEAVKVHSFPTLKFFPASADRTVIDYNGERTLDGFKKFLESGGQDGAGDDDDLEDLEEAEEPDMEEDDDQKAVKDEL

Latent membrane protein 1, sequence (P03230 whole entry): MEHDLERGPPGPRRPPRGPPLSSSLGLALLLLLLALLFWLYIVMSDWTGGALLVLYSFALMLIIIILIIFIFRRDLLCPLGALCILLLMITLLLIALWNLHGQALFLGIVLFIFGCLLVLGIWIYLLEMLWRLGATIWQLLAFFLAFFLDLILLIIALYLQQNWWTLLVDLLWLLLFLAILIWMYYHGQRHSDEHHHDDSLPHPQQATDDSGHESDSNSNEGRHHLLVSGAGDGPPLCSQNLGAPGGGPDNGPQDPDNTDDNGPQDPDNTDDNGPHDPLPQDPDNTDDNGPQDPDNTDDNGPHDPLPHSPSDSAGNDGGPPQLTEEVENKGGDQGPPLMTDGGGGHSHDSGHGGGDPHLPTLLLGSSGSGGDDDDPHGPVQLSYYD

COc1ccc(C)cc1S(=O)(=O)N(CC(=O)Nc1cc([N+](=O)[O-])ccc1C)c1ccc(C)c(C)c1
active: AC50 [1] 29.5 µM

CN(C)c1ccc(/C=C/c2noc(-c3ccccc3O)n2)cc1
active: IC50 [2] 1.42 µM | IC50 [3] 1.45 µM | IC50 [4] 1.16 µM | IC50 [5] 2.1 µM | IC50 [6] 1.7 µM | IC50 [7] 1.3 µM | IC50 [8] 1.9 µM

O=C(CN1C(=O)COc2ccc(S(=O)(=O)N3CCCC3)cc21)NCc1ccccn1
inactive: IC50 [9] > 89.2 µM | EC50 [10] > 54.7 µM | EC50 [11] > 54.7 µM | EC50 [12] > 54.7 µM

CC(C)(O)C#Cc1ccccc1C(=O)NC(CC(N)=O)C(=O)O (configuration not stated)
inactive: IC50 [9] > 89.2 µM | EC50 [10] > 54.7 µM | EC50 [11] > 55.9 µM | EC50 [12] > 54.7 µM

CC(C)OC(=O)c1ccc(NCc2cc(O)ccc2O)cc1Cl
active: AC50 [13] 10.9 µM | AC50 [14] 4.45 µM | AC50 [15] 33.5 µM | AC50 [16] 49.2 µM | AC50 [17] 6.42 µM | AC50 [18] 2.15 µM | AC50 [19] 17 µM | AC50 [20] 4.76 µM | AC50 [21] 23.6 µM | AC50 [1] 9.48 µM

O=C(NC(Cc1ccc(O)cc1)C(=O)N=Nc1c(O)[nH]c2ccccc12)c1ccccc1 (configuration not stated)
active: AC50 [22] 19.5 µM
